Data from ChEMBL document CHEMBL1201862, “PubChem BioAssay data set” (2004).
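Cultured in 96-well plates, cells were exposed to test compound for 48 hours across five concentrations. GI50: concentration for 50% inhibition of growth.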 Activity calls are given as the source filed them. Rule as the data show it: active = GI50 up to about 1.1 µM and inactive = higher.

Columns and labels:
Test in all cases: NCI tumour cell line growth inhibition, 48 h
[1] = tested on: ACHN
[2] = tested on: CAKI-1
[3] = tested on: EKVX
[4] = tested on: HCT-116
[5] = tested on: HOP-62
[6] = tested on: HT-29
[7] = tested on: Hs-578T
[8] = tested on: M14
[9] = tested on: MDA-MB-231
[10] = tested on: MDA-MB-435
[11] = tested on: MOLT-4
[12] = tested on: NCI/ADR-RES
[13] = tested on: OVCAR-4
[14] = tested on: OVCAR-5
[15] = tested on: RXF 393
[16] = tested on: SW-620
[17] = tested on: U-251
[18] = tested on: UO-31
[19] = tested on: PC-3
[20] = tested on: HCC 2998

Structure (SMILES) | GI50 [1] | GI50 [2] | GI50 [3] | GI50 [4] | GI50 [5] | GI50 [6] | GI50 [7] | GI50 [8] | GI50 [9] | GI50 [10] | GI50 [11] | GI50 [12] | GI50 [13] | GI50 [14] | GI50 [15] | GI50 [16] | GI50 [17] | GI50 [18] | GI50 [19] | GI50 [20]
N[C@@H](Cc1ccc2oc3cc(=O)c4ccccc4c-3nc2c1)C(=O)O | 48.2 µM (inactive) | > 100 µM (inactive) | > 100 µM (inactive) | > 100 µM (inactive) | 21.9 µM (inactive) | 31.5 µM (inactive) | 45.8 µM (inactive) | 15.3 µM (inactive) | > 100 µM (inactive) | 17 µM (inactive) | 40.7 µM (inactive) | > 100 µM (inactive) | > 100 µM (inactive) | > 100 µM (inactive) | > 100 µM (inactive) | > 100 µM (inactive) | 36.3 µM (inactive) | > 100 µM (inactive) | – | –
Cc1csc2c(=O)n(C3OC(CO)C(O)C3O)c(=O)[nH]c12 (stereo not given) | > 100 µM (inactive) | > 100 µM (inactive) | > 100 µM (inactive) | > 100 µM (inactive) | > 100 µM (inactive) | > 100 µM (inactive) | > 100 µM (inactive) | > 100 µM (inactive) | > 100 µM (inactive) | > 100 µM (inactive) | > 100 µM (inactive) | > 100 µM (inactive) | > 100 µM (inactive) | > 100 µM (inactive) | > 100 µM (inactive) | > 100 µM (inactive) | > 100 µM (inactive) | > 100 µM (inactive) | > 100 µM (inactive) | –
COc1c(C)c(C/C=C(\C)CCCCO)c(OC)c(OC)c1OC | > 100 µM (inactive) | 0.112 µM (active) | > 100 µM (inactive) | > 100 µM (inactive) | > 100 µM (inactive) | > 100 µM (inactive) | > 100 µM (inactive) | > 100 µM (inactive) | > 100 µM (inactive) | > 100 µM (inactive) | 73.6 µM (inactive) | > 100 µM (inactive) | > 100 µM (inactive) | > 100 µM (inactive) | > 100 µM (inactive) | > 100 µM (inactive) | > 100 µM (inactive) | > 100 µM (inactive) | > 100 µM (inactive) | –
[N-]=[N+]=C(C(=O)C(=[N+]=[N-])C(=O)c1ccccc1)C(=O)c1ccccc1 | > 100 µM (inactive) | – | > 100 µM (inactive) | > 100 µM (inactive) | > 100 µM (inactive) | > 100 µM (inactive) | > 100 µM (inactive) | > 100 µM (inactive) | > 100 µM (inactive) | > 100 µM (inactive) | – | > 100 µM (inactive) | – | > 100 µM (inactive) | > 100 µM (inactive) | > 100 µM (inactive) | – | 65.5 µM (inactive) | > 100 µM (inactive) | > 100 µM (inactive)
Cc1ccc2c(c1)C(=O)/C(=N/Nc1ccc(Cl)cc1)CCO2 | > 100 µM (inactive) | > 100 µM (inactive) | > 100 µM (inactive) | 50.7 µM (inactive) | > 100 µM (inactive) | 26.4 µM (inactive) | 35.4 µM (inactive) | 44 µM (inactive) | > 100 µM (inactive) | 71 µM (inactive) | 71.3 µM (inactive) | > 100 µM (inactive) | 80.4 µM (inactive) | 69.7 µM (inactive) | – | > 100 µM (inactive) | > 100 µM (inactive) | > 100 µM (inactive) | 54.5 µM (inactive) | 54.1 µM (inactive)
CCCCCCCCCCCCCC(=O)O.O=CC(O)C(O)C(OC1OC(CO)C(O)C(O)C1O)C(O)CO (stereo not given) | > 100 µM (inactive) | 71.6 µM (inactive) | – | > 100 µM (inactive) | 44.8 µM (inactive) | > 100 µM (inactive) | > 100 µM (inactive) | > 100 µM (inactive) | 28.8 µM (inactive) | 40.6 µM (inactive) | – | > 100 µM (inactive) | > 100 µM (inactive) | > 100 µM (inactive) | > 100 µM (inactive) | > 100 µM (inactive) | 35 µM (inactive) | > 100 µM (inactive) | 73.5 µM (inactive) | –
Cc1c(Cl)ccc2c(=O)c3cccc(CC(=O)O)c3oc12 | > 100 µM (inactive) | > 100 µM (inactive) | > 100 µM (inactive) | > 100 µM (inactive) | > 100 µM (inactive) | > 100 µM (inactive) | > 100 µM (inactive) | > 100 µM (inactive) | > 100 µM (inactive) | > 100 µM (inactive) | > 100 µM (inactive) | > 100 µM (inactive) | > 100 µM (inactive) | – | – | > 100 µM (inactive) | > 100 µM (inactive) | > 100 µM (inactive) | > 100 µM (inactive) | > 100 µM (inactive)
Cc1ccn2c(CCc3nnc4cc(C)ccn34)nnc2c1 | > 100 µM (inactive) | > 100 µM (inactive) | > 100 µM (inactive) | > 100 µM (inactive) | > 100 µM (inactive) | > 100 µM (inactive) | > 100 µM (inactive) | > 100 µM (inactive) | > 100 µM (inactive) | > 100 µM (inactive) | > 100 µM (inactive) | > 100 µM (inactive) | > 100 µM (inactive) | > 100 µM (inactive) | > 100 µM (inactive) | > 100 µM (inactive) | > 100 µM (inactive) | > 100 µM (inactive) | > 100 µM (inactive) | –
